Measurements from patent publication US10934310B2, “Inhibitors of Bruton's tyrosine kinase and method of their use” (JANSSEN PHARMACEUTICA NV, priority 2015, dated 2021).

What follows are molecules tested against unphosphorylated-BTK kinase domain (UP-BTK), GST-tagged human BTK (389-659aa) (Homo sapiens (Human), UniProt Q06187) (assay: BTK Kinase Lanthascreen Binding Assay). Conditions: Lanthascreen binding, 60 minutes incubation; pIC50 = negative log of the IC50 in molar.
Protocol: BTK Kinase Lanthascreen Binding Assay:
A BTK kinase lanthascreen binding assay monitors compound binding to unphosphorylated-BTK kinase domain (UP-BTK), by competing with a fluorescent labeled tracer. […] Data were analyzed using Xlfit™ version 5.3 from ID Business Solutions (Guildford), Microsoft Excel add-in. pIC50 refers to the negative log of the IC50 in molar.

Sequence of unphosphorylated-BTK kinase domain (UP-BTK), GST-tagged human BTK (389-659aa) (Q06187 389-659): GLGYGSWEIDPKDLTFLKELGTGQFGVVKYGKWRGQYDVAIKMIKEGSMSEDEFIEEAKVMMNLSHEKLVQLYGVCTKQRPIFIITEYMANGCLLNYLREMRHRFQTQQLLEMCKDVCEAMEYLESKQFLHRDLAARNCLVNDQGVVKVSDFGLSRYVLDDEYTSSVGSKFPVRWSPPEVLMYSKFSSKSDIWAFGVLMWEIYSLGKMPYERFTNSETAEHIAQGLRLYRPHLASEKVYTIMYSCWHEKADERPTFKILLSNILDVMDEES

| Compound | BTK_I_binding pIC50 |
| --- | --- |
| C=CC(=O)N[C@H]1CCCC[C@H]1NC(=O)c1sc2nccc3c2c1NC(=O)N3c1cnc(OCC(C)C)cc1C (single isomer, unassigned) [Example 312, N-((1R,2S)-2-Acrylamidocyclohexyl)-5-(*S)-(6-isobutoxy-4-methylpyridin-3-yl)-4-oxo-4,5-dihydro-3H-1-thia-3,5,8-triazaacenaphthylene-2-carboxamide] | 8.01 |
| C=CC(=O)N[C@@H]1CC[C@H](NC(=O)c2sc3nccc4c3c2NC(=O)N4c2ccc(Oc3ccccc3)cn2)C1 (single isomer, unassigned) [Example 313] | 7.83 |
| C=CC(=O)N[C@H]1CCC[C@H](NC(=O)c2sc3nccc4c3c2NC(=O)N4c2ccc(Oc3ccccc3)cn2)C1 (single isomer, unassigned) [Example 315, N-((1*S,3*S)-3-Acrylamidocyclohexyl)-4-oxo-5-(5-phenoxypyridin-2-yl)-4,5-dihydro-3H-1-thia-3,5,8-triazaacenaphthylene-2-carboxamide] | 7.50 |
| Cc1nc(Oc2ccccc2)ccc1N1C(=O)Nc2c(C(=O)N[C@@H]3CCC[C@@H]3N)sc3nccc1c23 (single isomer, unassigned) [Example 318, N-((1*R,2*S)-2-Aminocyclopentyl)-5-(*S)-(2-methyl-6-phenoxypyridin-3-yl)-4-oxo-4,5-dihydro-3H-1-thia-3,5,8-triazaacenaphthylene-2-carboxamide] | 6.46 |
| C=CC(=O)N[C@H]1CC[C@H](NC(=O)c2sc3nccc4c3c2NC(=O)N4c2ccc(Oc3ccccc3)nc2)C1 (single isomer, unassigned) [Example 321, N-((1*S,3*S)-3-Acrylamidocyclopentyl)-4-oxo-5-(6-phenoxypyridin-3-yl)-4,5-dihydro-3H-1-thia-3,5,8-triazaacenaphthylene-2-carboxamide] | 7.71 |
| C=CC(=O)N[C@H]1CCC[C@H](NC(=O)c2sc3nccc4c3c2NC(=O)N4c2ccc(Oc3ccccc3)nc2)C1 (single isomer, unassigned) [Example 323] | 7.13 |
| C=CC(=O)N[C@H]1CC[C@@H](NC(=O)c2sc3nccc4c3c2NC(=O)N4c2ccc(Oc3ccccc3)cn2)C1 (single isomer, unassigned) [Example 328, N-((1*R,3*S)-3-Acrylamidocyclopentyl)-4-oxo-5-(5-phenoxypyridin-2-yl)-4,5-dihydro-3H-1-thia-3,5,8-triazaacenaphthylene-2-carboxamide] | 6.58 |
| C=CC(=O)N[C@@H]1CCC[C@@H](NC(=O)c2sc3nccc4c3c2NC(=O)N4c2ccc(Oc3ccccc3)nc2)C1 (single isomer, unassigned) [Example 331, N-((1*R,3*R)-3-Acrylamidocyclohexyl)-4-oxo-5-(6-phenoxypyridin-3-yl)-4,5-dihydro-3H-1-thia-3,5,8-triazaacenaphthylene-2-carboxamide] | 6.66 |
| Cc1nc(Oc2ccccc2)ccc1N1C(=O)Nc2c(C(=O)N[C@@H]3CCCC[C@@H]3N)sc3nccc1c23 (single isomer, unassigned) [Example 333, N-((1R,2S)-2-Aminocyclohexyl)-5-(*S)-(2-methyl-6-phenoxypyridin-3-yl)-4-oxo-4,5-dihydro-3H-1-thia-3,5,8-triazaacenaphthylene-2-carboxamide] | 6.50 |
| C=CC(=O)N[C@@H]1CC[C@@H](NC(=O)c2sc3nccc4c3c2NC(=O)N4c2ccc(Oc3ccccc3)nc2)C1 (single isomer, unassigned) [Example 334, N-((1*R,3*R)-3-Acrylamidocyclopentyl)-4-oxo-5-(6-phenoxypyridin-3-yl)-4,5-dihydro-3H-1-thia-3,5,8-triazaacenaphthylene-2-carboxamide] | 6.81 |
| Cc1nc(Oc2ccccc2)ccc1N1C(=O)Nc2c(C(=O)N[C@@H]3CCC[C@H]3N)sc3nccc1c23 (single isomer, unassigned) [Example 339, N-((1R,2R)-2-Aminocyclopentyl)-5-(*S)-(2-methyl-6-phenoxypyridin-3-yl)-4-oxo-4,5-dihydro-3H-1-thia-3,5,8-triazaacenaphthylene-2-carboxamide] | 6.28 |
| CCC(=O)N[C@H]1CCCC[C@H]1NC(=O)c1sc2nccc3c2c1NC(=O)N3c1ccc(Oc2ccccc2)nc1C (single isomer, unassigned) [Example 343, 5-(*S)-(2-Methyl-6-phenoxypyridin-3-yl)-4-oxo-N-((1R,2S)-2-propionamidocyclohexyl)-4,5-dihydro-3H-1-thia-3,5,8-triazaacenaphthylene-2-carboxamide] | 6.11 |

More lines, now with the values ahead:

| BTK_I_binding pIC50 | Compound |
| --- | --- |
| 8.40 | C=CC(=O)N[C@H]1CCCC[C@H]1NC(=O)c1sc2nccc3c2c1NC(=O)N3c1ccc(Oc2ccccc2)nc1C (single isomer, unassigned) [Example 303, N-((1R,2S)-2-Acrylamidocyclohexyl)-5-(*S)-(2-methyl-6-phenoxypyridin-3-yl)-4-oxo-4,5-dihydro-3H-1-thia-3,5,8-triazaacenaphthylene-2-carboxamide] |
| 7.48 | C=CC(=O)N[C@H]1CCC[C@H]1NC(=O)c1sc2nccc3c2c1NC(=O)N3c1ccc(OC2CCOCC2)cc1C (single isomer, unassigned) [Example 304, N-((1R,2S)-2-Acrylamidocyclopentyl)-5-(*S)-(2-methyl-4-((tetrahydro-2H-pyran-4-yl)oxy)phenyl)-4-oxo-4,5-dihydro-3H-1-thia-3,5,8-triazaacenaphthylene-2-carboxamide] |
| 8.04 | C=CC(=O)N[C@H]1CC[C@H](NC(=O)c2sc3nccc4c3c2NC(=O)N4c2cnc(Oc3ccccc3)cc2C)C1 (single isomer, unassigned) [Example 306, N-((1*S,3*S)-3-Acrylamidocyclopentyl)-5-(*S)-(4-methyl-6-phenoxypyridin-3-yl)-4-oxo-4,5-dihydro-3H-1-thia-3,5,8-triazaacenaphthylene-2-carboxamide] |
| 7.78 | C=CC(=O)N[C@H]1CCC[C@H](NC(=O)c2sc3nccc4c3c2NC(=O)N4c2cnc(Oc3ccccc3)cc2C)C1 (single isomer, unassigned) [Example 308, N-((1*S,3*S)-3-Acrylamidocyclohexyl)-5-(*S)-(4-methyl-6-phenoxypyridin-3-yl)-4-oxo-4,5-dihydro-3H-1-thia-3,5,8-triazaacenaphthylene-2-carboxamide] |
| 7.91 | C=CC(=O)N[C@H]1CCCC[C@H]1NC(=O)c1sc2nccc3c2c1NC(=O)N3c1cnc(OC2CCCC2)cc1C (single isomer, unassigned) [Example 309, N-((1R,2S)-2-Acrylamidocyclohexyl)-5-(*S)-(6-(cyclopentyloxy)-4-methylpyridin-3-yl)-4-oxo-4,5-dihydro-3H-1-thia-3,5,8-triazaacenaphthylene-2-carboxamide] |
| 7.33 | C=CC(=O)N[C@@H]1CCC[C@H]1NC(=O)c1sc2nccc3c2c1NC(=O)N3c1ccc(OC(C)C)cc1C (single isomer, unassigned) [Example 316, N-((1R,2R)-2-Acrylamidocyclopentyl)-5-(*S)-(4-isopropoxy-2-methylphenyl)-4-oxo-4,5-dihydro-3H-1-thia-3,5,8-triazaacenaphthylene-2-carboxamide] |
| 6.81 | C=CC(=O)N[C@@H]1CCCC[C@H]1NC(=O)c1sc2nccc3c2c1NC(=O)N3c1ccc(Oc2ccccc2)nc1C (single isomer, unassigned) [Example 322, N-((1R,2R)-2-Acrylamidocyclohexyl)-5-(*S)-(2-methyl-6-phenoxypyridin-3-yl)-4-oxo-4,5-dihydro-3H-1-thia-3,5,8-triazaacenaphthylene-2-carboxamide] |
| 6.85 | C=CC(=O)N[C@@H]1CC[C@@H](NC(=O)c2sc3nccc4c3c2NC(=O)N4c2cnc(Oc3ccccc3)cc2C)C1 (single isomer, unassigned) [Example 329, N-((1*R,3*R)-3-Acrylamidocyclopentyl)-5-(*S)-(4-methyl-6-phenoxypyridin-3-yl)-4-oxo-4,5-dihydro-3H-1-thia-3,5,8-triazaacenaphthylene-2-carboxamide] |
| 6.60 | C=CC(=O)N[C@@H]1CCC[C@@H](NC(=O)c2sc3nccc4c3c2NC(=O)N4c2cnc(Oc3ccccc3)cc2C)C1 (single isomer, unassigned) [Example 332, N-((1*R,3*R)-3-Acrylamidocyclohexyl)-5-(*S)-(4-methyl-6-phenoxypyridin-3-yl)-4-oxo-4,5-dihydro-3H-1-thia-3,5,8-triazaacenaphthylene-2-carboxamide] |
| 6.38 | Cc1cc(CC(C)C)ncc1N1C(=O)Nc2c(C(=O)N[C@@H]3CCCC[C@@H]3N)sc3nccc1c23 (single isomer, unassigned) [Example 335, N-((1R,2S)-2-Aminocyclohexyl)-5-(*S)-(6-isobutyl-4-methylpyridin-3-yl)-4-oxo-4,5-dihydro-3H-1-thia-3,5,8-triazaacenaphthylene-2-carboxamide] |
| 6.26 | CC(=O)N[C@H]1CCCC[C@H]1NC(=O)c1sc2nccc3c2c1NC(=O)N3c1ccc(Oc2ccccc2)nc1C (single isomer, unassigned) [Example 340, N-((1R,2S)-2-Acetamidocyclohexyl)-5-(*S)-(2-methyl-6-phenoxypyridin-3-yl)-4-oxo-4,5-dihydro-3H-1-thia-3,5,8-triazaacenaphthylene-2-carboxamide] |
| 6.23 | C=CC(=O)N[C@H]1CCCC[C@H]1NC(=O)c1sc2nccc3c2c1NC(=O)N3c1cnc(OC2CCCC2)cc1C (single isomer, unassigned) [Example 341, N-((1R,2S)-2-Acrylamidocyclohexyl)-5-(*R)-(6-(cyclopentyloxy)-4-methylpyridin-3-yl)-4-oxo-4,5-dihydro-3H-1-thia-3,5,8-triazaacenaphthylene-2-carboxamide] |
